# Data published in paper PMC11017246, “Discovery of GLPG2737, a Potent Type 2 Corrector of CFTR for the Treatment of Cystic Fibrosis in Combination with a Potentiator and a Type 1 Co-corrector” (Journal of Medicinal Chemistry, 2024).
# Experiments:
# CYP3A4 enzyme = CYP3A4 enzyme (Homo sapiens, UniProt P08684); experiment: Mechanism-based inactivation of CYP3A4; assay type: in vitro ADME
# [1] = tested on: cytochrome P450 subtypes except 2C9; experiment: CYP inhibition, all subtypes except 2C9; assay type: in vitro ADME; settings: human, liver microsomes, pH 7.4
# Description: (§1) Test compounds were diluted in methanol and then added to mixture containing 50 mM potassium phosphate buffer, pH 7.4, human liver microsomes (BD Gentest) and probe substrate. After prewarming for 5 min at 37 °C, the reaction was started by adding cofactor mix (7.65 mg/mL glucose-6-phosphate, 1.7 mg/mL NADP, 6 U/mL of glucose-6-phosphate dehydrogenase), resulting in seven final concentrations of test compounds in the range 0.14–100 μM (2% methanol). Isoform specific conditions regarding probe substrate and microsomal protein concentrations are available in Table 2. Final concentrations of cofactor mix components were as follows: 1.56 mg/mL glucose-6-phosphate, 0.34 mg/mL NADP, and 1.2 U/mL glucose-6-phosphate dehydrogenase. After incubation at 37 °C, the reaction was terminated with acetonitrile:methanol (2:1) solution with internal standard. Samples were centrifuged, and the supernatant fractions were analyzed by LC-MS/MS. The instrument responses (test compounds and internal standard peak areas) were referenced to those for solvent controls (assumed as 100%) in order to determine the percentage reduction in probe metabolism. Percent of control activity vs concentration plots were generated and fitted using GraphPad Prism software to generate IC50.
# PK rat = assay type: in vivo
# Description: These studies were performed with naïve male Sprague–Dawley rats (Janvier France, 6–8 weeks old). Rats were dosed iv via a bolus in the tail vein with a dose level of 0.1 mg/kg or orally as a single esophageal gavage with a dose level of 5 mg/kg. For the iv route, the compound was formulated in PEG200/water (60/40; v/v). For the oral route, the compound was formulated in MC 0.5% (2/98) as a homogeneous suspension. Before the oral dosing, the animals were deprived of food for at least 12 h before compound administration until 3 h after administration. All animals had free access to the tap water. Blood samples were collected under light anesthesia and placed into tubes containing Li-heparin as an anticoagulant. Blood samples were collected up to 24 h after dosing (n = 3 rats per route). After centrifugation, the resulting plasma samples were assayed by LC-MS/MS with a nongood laboratory practice (non-GLP)-validated method. PK parameters were calculated by noncompartmental analysis using WinNonlin software (Certara, Princeton, NJ, USA).
# CYP2C9 = target: T1, CYP2C9 (Homo sapiens, UniProt P11712); experiment: CYP reversible inhibition in HLM, CYP2C9; assay type: in vitro ADME; settings: probe not given; read-out: CYP inhibition IC50, 2C9
# T1 construct: tissue BD Gentest; host or cells: human liver microsomes
# Description: as §1
# [2] = Plasma protein binding, human; assay type: in vitro ADME; settings: human, plasma, pH 7.4, human plasma; read-out: PPB % human (converted)
# Description: (§2) Plasma protein binding was determined by equilibrium dialysis using the Pierce Red Device plate with inserts (ThermoScientific). Test compound at 5 μM (0.5% DMSO) spiked in freshly thawed human, rat, mouse, or dog plasma (Bioreclamation INC, Westbury, NY, USA) was dialyzed against phosphate-buffered saline (PBS, pH 7.4) at 37 °C under shaking for 4 h. Aliquots were taken from each side of the well, and matrix matched. Proteins were precipitated with an excess of acetonitrile, samples were mixed and centrifuged, and the supernatant was analyzed by liquid chromatography–mass spectrometry/mass spectrometry (LC–MS/MS). Addition of compound peak areas in the buffer chamber and the plasma chamber was considered to be 100% compound.
# CYP3A4 = CYP3A4 induction (mRNA) in human hepatocytes; assay type: in vitro ADME; settings: for CYP (3A4) mRNA induction, result in words: compared with positive control rifampicin
# Description: Cryopreserved human hepatocytes from a single donor were seeded at 0.1 × 10^6 cells/well. The next day, cells were dosed with test compound in assay medium (final test compound concentration 10 μM; final DMSO concentration 0.1%). Positive control inducer, rifampicin, for CYP3A4, was incubated alongside the test compound. Negative control wells were included where the test compound is replaced by vehicle solvent (0.1% DMSO in assay medium). Each test or control compound was dosed in triplicate at a single concentration (10 μM). The cells were exposed to the solutions for 72 h with fresh solution added every 24 h. For mRNA assessment, all media was removed from each of the wells, and the cells were washed once. The cells were lysed, and total RNA was then isolated from the hepatocyte lysates. Reverse transcription was performed, and quantitative PCR analysis was performed on the resulting cDNA, using gene-specific primer probe sets for CYP3A4 target cDNA and endogenous control. Samples were analyzed using an ABI 7900 HT real time PCR system. For mRNA assessment, relative fold mRNA expression was determined based on the threshold cycle (CT) data of target gene relative to endogenous control for each reaction and normalized to negative control using the 2-ΔΔCT method. Data were expressed as fold activation relative to the vehicle control and, as a percent, to the 10 μM rifampicin using the following formula: % of positive control = ((fold increase of the cpd relative to vehicle control – 1)/(fold increase of the rifampicin at 10 μM – 1)) × 100.
# [3] = Plasma protein binding, rat; assay type: in vitro ADME; settings: pH 7.4, read-out: PPB % rat (converted)
# Description: as §2
# ΔF508 CFTR = target: T2, ΔF508 CFTR (Homo sapiens, UniProt P13569, DEL508-508); experiment: TECC (transepithelial clamp circuit) in primary CF-derived HBE cells; assay type: cell-based
# T2 construct: host or cells: CFBE41o- TetON cells, expression induced with doxycycline
# Description: Bronchial epithelial cells isolated from the lungs of patients with CF homozygous for the ΔF508 CFTR mutation were obtained from McGill University (Montreal, QC, Canada) or the University of North Carolina (Chapel Hill, NC, United States). Cells were isolated from lungs obtained from donors undergoing planned transplantation. These primary cells were cultured directly on type IV collagen-coated polycarbonate Transwell supports with a diameter of 6.5 mm and pore size of 0.4 μm (Costar, #3397) for 18–25 days in an air–liquid interface, essentially as previously described for TECC.[23]
# Twenty-four hours prior to the electrophysiological recording, corrector and/or potentiator compounds were added on both the apical and basolateral sides. TECC recordings were performed by using the TECC instrument developed and sold by EP Design (Bertem, Belgium). During the recording, the epithelial cells were bathed in a NaCl-Ringer solution (120 mM NaCl, 20 mM HEPES, 1.2 mM CaCl2, 1.2 mM MgCl2, 0.8 mM KH2PO4, 0.8 mM K2HPO4, 5 mM glucose, pH 7.4) on both the basolateral (640 μL) and the apical (160 μL) sides and kept at 37 °C. Corrector and potentiator compounds were readded at the same concentration used during the 24 h pretreatment. Apical amiloride was used to inhibit the endogenous ENaC currents (100 μM), while forskolin (10 μM) was applied on both the apical and basolateral sides to stimulate CFTR. Measurements were done during a 20 min time frame with recordings every 2 min. The transepithelial potential and transepithelial resistance were measured in an open circuit and transformed to Ieq using Ohm’s law. The maximal increase in Ieq (ΔIeq, the difference in current before and after forskolin or potentiator treatment) was used as a measure for the increased CFTR activity. EC50 values were generated by measuring the impact of different concentrations of compounds on ΔIeq in primary cells. For this purpose, each transwell was treated with a different compound concentration. CFTRInh-172 was added apically at 10 μM to assess the specificity of the response. Dose response data was fitted using a 3-parameter hill function of the form Response = Bottom + (Top – Bottom)/(1 + (EC50/concentration)) to determine EC50 values. Percentage efficacy was calculated using the following formula: (max response – neg control)/(C1 response – neg control).
# PK dog = assay type: in vivo; settings: iv
# Description: These studies were performed with non-naïve male Beagle dogs (age 13.8 months old, origin: Marshall US, North Rose, NY 14516, USA; age 15.8 months old, origin: Harlan; age 17.7 months old, origin: Harlan). Dogs (n = 3) were dosed iv via a 10 min infusion via a catheter with a dose level of 1 mg/kg. After a washout of 3 days, they were dosed orally as a single gavage with a dose level of 5 or 1 mg/kg in PEG400/MC 0.5% or MC 0.5%. Before administration by the po route, animals were fasted for a period of at least 12 h before treatment, and food was given just after the 3 h of blood sampling. All animals had free access to tap water. Blood samples were taken without an anesthetic from a jugular or cephalic vein into tubes containing lithium heparin as an anticoagulant. Blood samples were taken up to 24 h after the start of the infusion. After centrifugation, the resulting plasma samples were assayed by LC-MS/MS with a nongood laboratory practice (non-GLP)-validated method. PK parameters were calculated by noncompartmental analysis using WinNonlin software (Certara, Princeton, NJ, USA).
# [4] = Plasma protein binding, dog; assay type: in vitro ADME; settings: dog, plasma, pH 7.4, dog plasma; read-out: PPB % dog (converted)
# Description: as §2
# T2 sequence (P13569 with tags, fused parts or gaps DEL508-508): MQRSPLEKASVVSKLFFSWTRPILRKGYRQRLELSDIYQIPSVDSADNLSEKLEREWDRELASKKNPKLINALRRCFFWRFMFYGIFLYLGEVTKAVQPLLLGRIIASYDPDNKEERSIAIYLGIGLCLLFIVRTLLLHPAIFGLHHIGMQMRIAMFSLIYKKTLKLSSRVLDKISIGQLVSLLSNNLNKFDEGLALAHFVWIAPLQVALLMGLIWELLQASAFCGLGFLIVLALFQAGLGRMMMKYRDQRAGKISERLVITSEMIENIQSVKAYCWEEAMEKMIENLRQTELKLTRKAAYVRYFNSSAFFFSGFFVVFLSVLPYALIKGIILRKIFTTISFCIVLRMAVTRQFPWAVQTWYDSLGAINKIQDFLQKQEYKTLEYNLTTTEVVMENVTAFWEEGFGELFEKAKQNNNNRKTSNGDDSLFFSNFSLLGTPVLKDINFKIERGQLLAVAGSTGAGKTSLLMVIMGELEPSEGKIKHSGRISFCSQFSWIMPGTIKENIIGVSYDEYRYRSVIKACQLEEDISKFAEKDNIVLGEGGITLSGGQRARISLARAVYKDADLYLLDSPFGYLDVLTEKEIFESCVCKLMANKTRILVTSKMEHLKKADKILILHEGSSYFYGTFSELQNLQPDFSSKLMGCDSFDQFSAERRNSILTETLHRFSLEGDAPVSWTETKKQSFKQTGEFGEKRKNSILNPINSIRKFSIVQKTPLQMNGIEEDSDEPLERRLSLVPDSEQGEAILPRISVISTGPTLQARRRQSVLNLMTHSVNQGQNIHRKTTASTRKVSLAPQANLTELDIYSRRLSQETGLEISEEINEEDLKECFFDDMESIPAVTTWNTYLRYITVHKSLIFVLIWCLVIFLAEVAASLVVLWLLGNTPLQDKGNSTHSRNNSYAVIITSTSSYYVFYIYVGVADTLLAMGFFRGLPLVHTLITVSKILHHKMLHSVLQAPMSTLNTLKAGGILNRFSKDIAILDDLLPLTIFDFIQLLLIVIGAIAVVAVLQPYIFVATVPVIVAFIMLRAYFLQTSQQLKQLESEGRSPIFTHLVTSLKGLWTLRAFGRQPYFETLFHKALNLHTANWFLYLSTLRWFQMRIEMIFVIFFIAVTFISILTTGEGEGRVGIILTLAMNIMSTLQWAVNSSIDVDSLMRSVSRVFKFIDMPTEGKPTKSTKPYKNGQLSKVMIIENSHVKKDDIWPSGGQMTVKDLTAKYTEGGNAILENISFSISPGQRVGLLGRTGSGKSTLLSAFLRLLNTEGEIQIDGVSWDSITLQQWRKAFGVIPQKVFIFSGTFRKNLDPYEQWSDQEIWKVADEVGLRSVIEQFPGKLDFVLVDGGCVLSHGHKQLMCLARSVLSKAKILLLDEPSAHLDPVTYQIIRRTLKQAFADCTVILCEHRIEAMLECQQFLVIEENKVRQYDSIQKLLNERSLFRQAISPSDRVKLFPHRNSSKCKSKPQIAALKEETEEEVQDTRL
# Chain of CYP3A4 enzyme (P08684 whole entry): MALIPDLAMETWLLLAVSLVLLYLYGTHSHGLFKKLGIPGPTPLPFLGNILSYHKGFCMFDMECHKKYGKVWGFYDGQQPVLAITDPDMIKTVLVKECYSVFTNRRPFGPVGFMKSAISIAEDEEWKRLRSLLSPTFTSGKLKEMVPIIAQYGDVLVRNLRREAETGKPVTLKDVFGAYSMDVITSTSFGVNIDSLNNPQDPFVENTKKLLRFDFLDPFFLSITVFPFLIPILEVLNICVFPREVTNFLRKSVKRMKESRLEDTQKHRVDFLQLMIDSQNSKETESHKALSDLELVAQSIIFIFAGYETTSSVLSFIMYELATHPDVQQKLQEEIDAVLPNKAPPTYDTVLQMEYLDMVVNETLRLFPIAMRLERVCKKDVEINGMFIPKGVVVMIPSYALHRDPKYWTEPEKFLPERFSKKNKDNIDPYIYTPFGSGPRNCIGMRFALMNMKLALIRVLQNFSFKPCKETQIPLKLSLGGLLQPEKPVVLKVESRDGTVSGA
# T1 sequence (P11712 whole entry): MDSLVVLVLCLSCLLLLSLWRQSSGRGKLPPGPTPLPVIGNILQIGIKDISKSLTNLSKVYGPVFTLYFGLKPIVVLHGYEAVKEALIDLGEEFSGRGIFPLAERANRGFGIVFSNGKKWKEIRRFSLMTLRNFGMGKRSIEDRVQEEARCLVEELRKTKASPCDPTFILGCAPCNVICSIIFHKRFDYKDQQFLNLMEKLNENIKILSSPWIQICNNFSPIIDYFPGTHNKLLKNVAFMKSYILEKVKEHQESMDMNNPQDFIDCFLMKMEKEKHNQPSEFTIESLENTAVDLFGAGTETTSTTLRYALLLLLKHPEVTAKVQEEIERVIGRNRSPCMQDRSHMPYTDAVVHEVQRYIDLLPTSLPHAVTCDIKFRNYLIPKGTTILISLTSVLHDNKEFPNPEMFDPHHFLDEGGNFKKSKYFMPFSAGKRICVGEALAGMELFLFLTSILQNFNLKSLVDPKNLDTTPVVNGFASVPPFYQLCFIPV
smiles,measurement,setting,value
CS(=O)(=O)NC(=O)c1cc(-c2ccc(N3CCC(C#N)CC3)nc2)c2c(C3CCC3)nn(-c3ccccc3)c2n1 [Compound 45],mechanism-based inactivation of CYP3A4,CYP3A4 enzyme,devoid of mechanism-based inactivation
same,IC50,[1],≥ 50000 nM
same,clearance,"PK rat; male, Sprague-Dawley, plasma, 1 mg/kg, iv dosing, read-out: plasma clearance (converted)",0.41 mL/min/kg
same,bioavailability at 24 h,"PK rat; male, Sprague-Dawley, plasma, 5 mg/kg po",63.4%
same,clearance,"PK rat; male, Sprague-Dawley, plasma, iv, 0.1 mg/kg, formula-strings file, unit inferred, read-out: Cl (converted)",0.41 mL/min/kg
same,Vd,"PK rat; male, Sprague-Dawley, plasma, iv, 0.1 mg/kg, formula-strings file, unit inferred, read-out: Vss",0.195 L/kg
same,Vd,"PK rat; male, Sprague-Dawley, plasma, iv, 1 mg/kg, 1 mg/kg iv, read-out: Vss",0.2 L/kg
same,IC50,CYP2C9,187 nM
same,"fraction unbound at 4 h, 5 μM",[2],0.0035
same,"CYP (3A4) mRNA induction, result in words",CYP3A4,low CYP3A4 induction
same,"fraction unbound at 4 h, 5 μM",[3],0.0003
CS(=O)(=O)NC(=O)c1cc(N2CCC(N3CCOCC3)CC2)c2c(C3CCC3)nn(-c3ccccc3)c2n1 [Compound 49],CLu rat,"PK rat; iv, unbound clearance",70 mL/min/kg
same,clearance,"PK rat; male, Sprague-Dawley, plasma, 0.1 mg/kg, iv, read-out: CLp rat (converted)",1 mL/min/kg
same,half-life,"PK rat; male, Sprague-Dawley, plasma, 0.1 mg/kg, iv, read-out: t1/2 iv rat (converted)",4.7 h
same,Vd,"PK rat; male, Sprague-Dawley, plasma, iv, 0.1 mg/kg, iv, read-out: Vss rat",0.4 L/kg
same,shift of the potentiator activity,ΔF508 CFTR; GLPG1837 potency in triple combination,1 log unit
same,Emax,"ΔF508 CFTR; primary ΔF508 homozygous HBE cells, 24 h incubation, with GLPG2222, read-out: TECC HBE with GLPG2222 % max activation",534%
same,EC50,"ΔF508 CFTR; primary ΔF508 homozygous HBE cells, 24 h incubation, with GLPG2222, read-out: TECC HBE with GLPG2222 EC50",39 nM
same,"fraction unbound at 4 h, 5 μM",[2],0.01
same,CYP induction @10 μM (mRNA) % rifampicin,CYP3A4; data generated by AbbVie team,6.7%
same,CYP induction @10 μM (mRNA) % rifampicin,CYP3A4; data generated by Galapagos,12%
same,"CYP (3A4) mRNA induction, result in words",CYP3A4,devoid of any CYP induction liability
same,"fraction unbound at 4 h, 5 μM",[3],0.01
same,CLu dog,PK dog; unbound clearance,8.3 mL/min/kg
same,clearance,"PK dog; male, beagle, plasma, 1 mg/kg, read-out: CLp dog (converted)",0.333 mL/min/kg
same,Vd,"PK dog; male, beagle, plasma, 1 mg/kg, read-out: Vss dog",0.2 L/kg
same,half-life,"PK dog; male, beagle, plasma, 1 mg/kg, read-out: t1/2 iv dog (converted)",6.6 h
same,"fraction unbound at 4 h, 5 μM",[4],0.015
